Assay results from ChEMBL document CHEMBL1811807, “Evaluation of influence of Ap4A analogues on Fhit-positive HEK293T cells; cytotoxicity and ability to induce apoptosis” (Bioorg Med Chem, 2011).
Each block holds one compound with its values, some of them ahead of it. The source made the active and inactive calls. The rule behind the calls is not given here.

How the values were obtained:
[1] = Stability in medium collected from human HEK293T cells assessed as intact compound level at 1 mM incubated up to 48 hrs at 37 degC; assay type: ADME, cell-based, HEK-293T; conditions: read-out: Stability
[2] = Stability in medium collected from human HEK293T cells assessed as compound degradation level at 1 mM incubated up to 48 hrs at 37 degC; assay type: ADME, cell-based, HEK-293T; conditions: read-out: Activity
[3] = Stability in HEK293T cellular extract assessed as compound degradation level at 1 mM incubated after 48 hrs at 37 degC; assay type: ADME, HEK-293T; conditions: human, read-out: Activity
[4] = target: Bis(5'-adenosyl)-triphosphatase (Homo sapiens, UniProt P49789); assay: Inhibition of Fragile histidine triad protein hydrolytic activity
Chain of Bis(5'-adenosyl)-triphosphatase (P49789 whole entry): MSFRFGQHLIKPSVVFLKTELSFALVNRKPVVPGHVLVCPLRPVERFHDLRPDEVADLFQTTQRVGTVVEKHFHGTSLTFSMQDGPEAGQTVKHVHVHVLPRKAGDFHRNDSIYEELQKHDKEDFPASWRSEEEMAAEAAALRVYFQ

[5] = Stability in human HEK293T cellular extract assessed as intact compound level at 1 mM incubated after 48 hrs at 37 degC; assay type: ADME, cell-based, HEK-293T; conditions: read-out: Stability
HL-60 = assay: Cytotoxicity in human HL60 cells after 72 hrs bu MTT assay; assay type: functional, cell-based; conditions: HL-60, 72 h
HEK-293T [6] = assay: Cytotoxicity in Fhit-positive HEK293T cells after 72 hrs bu MTT assay; assay type: functional, cell-based; conditions: Homo sapiens
A549 = assay: Cytotoxicity in Fhit-negative human A549 cells after 72 hrs bu MTT assay; assay type: functional, cell-based; conditions: A549, 72 h
HeLa = assay: Cytotoxicity in Fhit-negative human HeLa cells after 72 hrs bu MTT assay; assay type: functional, cell-based
HEK-293T [7] = assay: Induction of apoptosis in Fhit-positive HEK293T cells assessed as caspase-3 activation at 5 uM after 18 hrs by fluorescent assay; assay type: functional, Homo sapiens
HEK-293T [8] = assay: Induction of apoptosis in Fhit-positive HEK293T cells assessed as caspase-3 activation at 0.5 to 1 uM after 18 hrs by fluorescent assay; assay type: functional, Homo sapiens
HEK-293T [9] = assay: Induction of apoptosis in Fhit-positive HEK293T cells assessed as caspase-3 activation at 0.5 to 5 uM after 18 hrs by fluorescent assay; assay type: functional, Homo sapiens
HEK-293T [10] = assay: Induction of apoptosis in Fhit-positive HEK293T cells assessed as caspase-3 activation at 5 to 10 uM after 18 hrs by fluorescent assay; assay type: functional, cell-based; conditions: Homo sapiens
HEK-293T [11] = assay: Induction of apoptosis in Fhit-positive HEK293T cells assessed as caspase-8 activation at 5 uM after 18 hrs by luminescent assay; assay type: functional, Homo sapiens
HEK-293T [12] = assay: Induction of apoptosis in Fhit-positive HEK293T cells assessed as caspase-9 activation at 5 uM after 18 hrs by luminescent assay; assay type: functional, Homo sapiens
HEK-293T [13] = assay: Induction of apoptosis in Fhit-positive HEK293T cells assessed as caspase-3 activation at 5 uM in presence of Fhit-specific siRNA after 18 hrs by fluorescent assay; assay type: functional, cell-based; conditions: Homo sapiens
HEK-293T [14] = assay: Induction of apoptosis in Fhit-positive HEK293T cells assessed as caspase-8 activation at 5 uM in presence of Fhit-specific siRNA after 18 hrs by fluorescent assay; assay type: functional, cell-based; conditions: Homo sapiens
HEK-293T [15] = assay: Induction of apoptosis in Fhit-positive HEK293T cells at 20 uM by Annexin-V assay (reference value: 3.9 +/- 0.95%); assay type: functional, Homo sapiens
HEK-293T [16] = assay: Induction of apoptosis in Fhit-positive HEK293T cells at 5 uM after 24 hrs by Annexin-V assay (reference value: 3.9 +/- 0.95%); assay type: functional, Homo sapiens
HEK-293T [17] = assay: Induction of apoptosis in Fhit-positive HEK293T cells at 5 uM after 48 hrs by Annexin-V assay (reference value: 3.9 +/- 0.95%); assay type: functional, Homo sapiens
[18] = Drug uptake in Fhit-positive HEK293T cells at 7.5 uM after 24 hrs using fluorescein labeled compound; assay type: ADME, cell-based; conditions: human, hek-293t
[19] = Drug uptake in Fhit-positive HEK293T cells cytoplasmic compartment at 7.5 uM after 24 hrs using fluorescein labeled compound; assay type: ADME, cell-based; conditions: human, hek-293t
[20] = Drug uptake in Fhit-positive HEK293T cells Vesicular structures compartment at 7.5 uM after 24 hrs using fluorescein labeled compound; assay type: ADME, cell-based; conditions: human, hek-293t

- Ki [4]: 0.035 µM
- remaining at 48 h, 1000 µM [1]: 97%
Compound: Nc1ncnc2c1ncn2[C@@H]1O[C@H](COP(=O)(S)OCC(COP(=O)(S)OC[C@H]2O[C@@H](n3cnc4c(N)ncnc43)[C@H](O)[C@@H]2O)OP(=O)(O)S)[C@@H](O)[C@H]1O (mixture of isomers)
- IC50 (HEK-293T [6]): > 80 µM

- Ki [4]: 0.035 µM
- remaining at 48 h, 1000 µM [1]: 97%
Compound: Nc1ncnc2c1ncn2[C@@H]1O[C@H](COP(=O)(S)OCC(COP(=O)(S)OC[C@H]2O[C@@H](n3cnc4c(N)ncnc43)[C@H](O)[C@@H]2O)OP(=O)(S)OC[C@H]2O[C@@H](n3cnc4c(N)ncnc43)[C@H](O)[C@@H]2O)[C@@H](O)[C@H]1O (mixture of isomers)
- IC50 (HEK-293T [6]): > 80 µM

- remaining at 48 h, 1000 µM [1]: 95%
- degraded at 48 h, 1000 µM [2]: 95%
- metabolised at 48 h, 1000 µM [3]: 88.7%
Compound: Nc1ncnc2c1ncn2[C@@H]1O[C@H](COP(=O)(O)OP(=O)(O)OP(=O)(O)OC[C@H]2O[C@@H](n3cnc4c(N)ncnc43)[C@H](O)[C@@H]2O)[C@@H](O)[C@H]1O

The next lines start with the compound.

Compound: Nc1ncnc2c1ncn2[C@@H]1O[C@H](COP(=O)(O)OP(=O)(O)OP(=O)(O)OP(=O)(O)OC[C@H]2O[C@@H](n3cnc4c(N)ncnc43)[C@H](O)[C@@H]2O)[C@@H](O)[C@H]1O [DIADENOSINE TETRAPHOSPHATE]
- remaining at 48 h, 1000 µM [1]: 95%
- degraded at 48 h, 1000 µM [2]: 95%
- metabolised at 48 h, 1000 µM [3]: 92.8%

Compound: Nc1ncnc2c1ncn2[C@@H]1O[C@H](COP(=O)(S)OCC(O)COP(=O)(S)OC[C@H]2O[C@@H](n3cnc4c(N)ncnc43)[C@H](O)[C@@H]2O)[C@@H](O)[C@H]1O (mixture of isomers)
- Ki [4]: 0.035 µM
- remaining at 48 h, 1000 µM [1]: 97%
- remaining at 48 h, 1000 µM [5]: 90%
- IC50 (HL-60): 9 µM
- IC50 (HEK-293T [6]): 17.5 µM
- IC50 (A549): > 80 µM
- IC50 (HeLa): > 80 µM
- Activity (HEK-293T [7]): 27%
- Activity (HEK-293T [8]): 10%
- Activity (HEK-293T [9]): 17%
- Activity (HEK-293T [10]): inactive
- Activity (HEK-293T [11]): 23%
- Activity (HEK-293T [12]): 21%
- Activity (HEK-293T [13]): inactive
- Activity (HEK-293T [14]): inactive
- Activity (HEK-293T [15]): 12.27%
- Activity (HEK-293T [16]): 10.5%
- Activity (HEK-293T [17]): 14.24%

Compound: Nc1ncnc2c1ncn2[C@@H]1O[C@H](COP(=O)(S)OCC(O)COP(=O)(S)OCCCCCCNC(=O)c2ccc3c(c2)C2(OC3=O)c3ccc(O)cc3Oc3cc(O)ccc32)[C@@H](O)[C@H]1O (some centres undefined)
- Drug uptake [18]: Active
- Drug uptake [19]: Active
- Drug uptake [20]: Active

Compound: Nc1ncnc2c1ncn2[C@@H]1O[C@H](COP(=O)(S)OCC(COP(=O)(O)S)(COP(=O)(S)OC[C@H]2O[C@@H](n3cnc4c(N)ncnc43)[C@H](O)[C@@H]2O)COP(=O)(S)OC[C@H]2O[C@@H](n3cnc4c(N)ncnc43)[C@H](O)[C@@H]2O)[C@@H](O)[C@H]1O (mixture of isomers)
- Ki [4]: 0.035 µM
- remaining at 48 h, 1000 µM [1]: 97%
- IC50 (HEK-293T [6]): > 80 µM

Compound: Nc1ncnc2c1ncn2[C@@H]1O[C@H](COP(=O)(S)OCC(COP(=O)(S)OC[C@H]2O[C@@H](n3cnc4c(N)ncnc43)[C@H](O)[C@@H]2O)(COP(=O)(S)OC[C@H]2O[C@@H](n3cnc4c(N)ncnc43)[C@H](O)[C@@H]2O)COP(=O)(S)OC[C@H]2O[C@@H](n3cnc4c(N)ncnc43)[C@H](O)[C@@H]2O)[C@@H](O)[C@H]1O (mixture of isomers)
- Ki [4]: 0.035 µM
- remaining at 48 h, 1000 µM [1]: 97%
- IC50 (HEK-293T [6]): > 80 µM
